Assay [1] in a line: DRUGMATRIX: Atrial Natriuretic Factor (ANF) radioligand binding (ligand: [125I] ANF (rat)). In kind it is cell membranes, Cavia porcellus, Dunkin-Hartley, Adrenal gland, Membrane. As to conditions: Not Active = under 50% inhibition at 10 µM.
Assay [2] is described as follows: DRUGMATRIX: beta-Lactamase enzyme inhibition (substrate: Nitrocefin). Also on record: species or system Bacillus cereus. As to conditions: Not Active = under 50% inhibition at 10 µM.
For assay [3], the target named is T1, 5-hydroxytryptamine receptor 2C (Homo sapiens, UniProt P28335).
T1 sequence (P28335 whole entry): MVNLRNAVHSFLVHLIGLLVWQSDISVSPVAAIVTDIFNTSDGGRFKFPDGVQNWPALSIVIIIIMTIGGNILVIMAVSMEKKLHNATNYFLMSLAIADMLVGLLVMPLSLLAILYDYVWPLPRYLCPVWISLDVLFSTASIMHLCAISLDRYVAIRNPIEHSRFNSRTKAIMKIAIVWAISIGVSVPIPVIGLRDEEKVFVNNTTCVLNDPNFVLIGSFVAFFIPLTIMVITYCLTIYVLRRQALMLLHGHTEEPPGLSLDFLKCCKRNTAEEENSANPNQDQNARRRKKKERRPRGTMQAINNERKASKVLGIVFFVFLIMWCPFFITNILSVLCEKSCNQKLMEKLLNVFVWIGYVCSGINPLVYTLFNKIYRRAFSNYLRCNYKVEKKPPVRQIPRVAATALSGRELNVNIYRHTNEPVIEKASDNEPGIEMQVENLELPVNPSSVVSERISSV
The assay is described as follows: DRUGMATRIX: Serotonin (5-Hydroxytryptamine) 5-HT2C radioligand binding (ligand: [3H] Mesulergine). In kind it is cell membranes, CHO-K1, Membrane. As to conditions: Not Active = under 50% inhibition at 10 µM.

The target in assay [4] is Sigma non-opioid intracellular receptor 1 (Homo sapiens, UniProt Q99720). The assay is described as follows: DRUGMATRIX: Sigma1 radioligand binding (ligand: [3H] Haloperidol). In kind it is cell membranes, Jurkat, Membrane. As to conditions: Not Active = under 50% inhibition at 10 µM.
Assay [5] deals with T2, C-C chemokine receptor type 4 (Homo sapiens, UniProt P51679).
T2 sequence (P51679 whole entry): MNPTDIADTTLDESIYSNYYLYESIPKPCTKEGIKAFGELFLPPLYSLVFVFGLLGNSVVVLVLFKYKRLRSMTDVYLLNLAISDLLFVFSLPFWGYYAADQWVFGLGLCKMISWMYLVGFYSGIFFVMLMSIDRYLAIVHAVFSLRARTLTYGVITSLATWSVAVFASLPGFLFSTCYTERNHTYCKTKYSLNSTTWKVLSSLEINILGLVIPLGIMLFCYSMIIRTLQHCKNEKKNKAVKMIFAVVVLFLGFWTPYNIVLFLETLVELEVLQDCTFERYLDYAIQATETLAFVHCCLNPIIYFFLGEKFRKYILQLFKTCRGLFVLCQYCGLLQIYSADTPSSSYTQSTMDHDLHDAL
In kind it is cell membranes, Membrane. As to conditions: chem-1.

Assay [6] can be described thus: DRUGMATRIX: Glutamate, AMPA radioligand binding (ligand: [3H] AMPA). In kind it is cell membranes, Rattus norvegicus, Wistar, Cerebral cortex, Membrane. As to conditions: Not Active = under 50% inhibition at 10 µM.
The next assay has as its target Melanocortin receptor 3 (Homo sapiens, UniProt P41968). In kind it is cell membranes, Membrane. As to conditions: hek293. Further: in other assays of this panel Not Active means under 50% inhibition at 10 µM.
A further assay has as its target Nitric oxide synthase 1 (Rattus norvegicus, UniProt P29476). In kind it is tissue-based, Cerebellum. Further: in other assays of this panel Not Active means under 50% inhibition at 10 µM.
Assay [7] deals with T3, Nitric oxide synthase, inducible (Mus musculus, UniProt P29477).
T3 sequence (P29477 whole entry): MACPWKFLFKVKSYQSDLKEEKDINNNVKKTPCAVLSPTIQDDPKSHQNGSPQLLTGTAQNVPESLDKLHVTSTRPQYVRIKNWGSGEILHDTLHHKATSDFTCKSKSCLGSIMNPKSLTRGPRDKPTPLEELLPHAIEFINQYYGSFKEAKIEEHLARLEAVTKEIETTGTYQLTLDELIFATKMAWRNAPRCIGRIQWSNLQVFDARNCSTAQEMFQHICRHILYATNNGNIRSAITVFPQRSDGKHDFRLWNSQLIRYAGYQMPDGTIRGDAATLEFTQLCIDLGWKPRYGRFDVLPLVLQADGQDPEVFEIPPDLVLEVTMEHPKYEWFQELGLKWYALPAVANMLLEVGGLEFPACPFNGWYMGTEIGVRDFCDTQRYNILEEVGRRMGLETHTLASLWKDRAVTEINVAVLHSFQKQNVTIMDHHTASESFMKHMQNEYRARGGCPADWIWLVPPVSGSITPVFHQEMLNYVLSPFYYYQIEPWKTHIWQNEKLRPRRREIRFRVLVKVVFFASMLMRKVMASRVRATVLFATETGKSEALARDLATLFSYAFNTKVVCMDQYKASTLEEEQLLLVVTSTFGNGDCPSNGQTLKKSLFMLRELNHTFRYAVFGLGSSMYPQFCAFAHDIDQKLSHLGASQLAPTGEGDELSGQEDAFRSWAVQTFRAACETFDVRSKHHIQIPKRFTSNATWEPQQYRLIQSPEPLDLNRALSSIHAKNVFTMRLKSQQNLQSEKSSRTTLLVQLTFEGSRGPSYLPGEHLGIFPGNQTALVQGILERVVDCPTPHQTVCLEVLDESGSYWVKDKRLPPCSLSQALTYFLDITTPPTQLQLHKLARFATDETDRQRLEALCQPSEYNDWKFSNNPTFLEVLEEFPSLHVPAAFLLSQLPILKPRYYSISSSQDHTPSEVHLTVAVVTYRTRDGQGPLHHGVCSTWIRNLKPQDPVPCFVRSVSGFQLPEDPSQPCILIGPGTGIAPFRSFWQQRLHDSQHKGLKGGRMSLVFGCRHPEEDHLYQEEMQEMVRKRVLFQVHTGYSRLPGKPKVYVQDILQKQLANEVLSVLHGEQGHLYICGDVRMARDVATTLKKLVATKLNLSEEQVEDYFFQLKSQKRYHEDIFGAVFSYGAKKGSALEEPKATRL
Also on record: species or system Escherichia coli.

Assay [8] is described as follows: DRUGMATRIX: Phosphodiesterase PDE4 enzyme inhibition (substrate: [3H]cAMP + cAMP). As to conditions: u-937; Not Active = under 50% inhibition at 10 µM.
The target in assay [9] is Mitogen-activated protein kinase 1 (Homo sapiens, UniProt P28482). The assay is described as follows: DRUGMATRIX: Protein Serine/Threonine Kinase, ERK2 enzyme inhibition (substrate: Myelin Basic Protein). As to conditions: Not Active = under 50% inhibition at 10 µM. Also on record: species or system Escherichia coli.

Each structure is given as a SMILES string.

Sequence of Nitric oxide synthase 1 (P29476 whole entry): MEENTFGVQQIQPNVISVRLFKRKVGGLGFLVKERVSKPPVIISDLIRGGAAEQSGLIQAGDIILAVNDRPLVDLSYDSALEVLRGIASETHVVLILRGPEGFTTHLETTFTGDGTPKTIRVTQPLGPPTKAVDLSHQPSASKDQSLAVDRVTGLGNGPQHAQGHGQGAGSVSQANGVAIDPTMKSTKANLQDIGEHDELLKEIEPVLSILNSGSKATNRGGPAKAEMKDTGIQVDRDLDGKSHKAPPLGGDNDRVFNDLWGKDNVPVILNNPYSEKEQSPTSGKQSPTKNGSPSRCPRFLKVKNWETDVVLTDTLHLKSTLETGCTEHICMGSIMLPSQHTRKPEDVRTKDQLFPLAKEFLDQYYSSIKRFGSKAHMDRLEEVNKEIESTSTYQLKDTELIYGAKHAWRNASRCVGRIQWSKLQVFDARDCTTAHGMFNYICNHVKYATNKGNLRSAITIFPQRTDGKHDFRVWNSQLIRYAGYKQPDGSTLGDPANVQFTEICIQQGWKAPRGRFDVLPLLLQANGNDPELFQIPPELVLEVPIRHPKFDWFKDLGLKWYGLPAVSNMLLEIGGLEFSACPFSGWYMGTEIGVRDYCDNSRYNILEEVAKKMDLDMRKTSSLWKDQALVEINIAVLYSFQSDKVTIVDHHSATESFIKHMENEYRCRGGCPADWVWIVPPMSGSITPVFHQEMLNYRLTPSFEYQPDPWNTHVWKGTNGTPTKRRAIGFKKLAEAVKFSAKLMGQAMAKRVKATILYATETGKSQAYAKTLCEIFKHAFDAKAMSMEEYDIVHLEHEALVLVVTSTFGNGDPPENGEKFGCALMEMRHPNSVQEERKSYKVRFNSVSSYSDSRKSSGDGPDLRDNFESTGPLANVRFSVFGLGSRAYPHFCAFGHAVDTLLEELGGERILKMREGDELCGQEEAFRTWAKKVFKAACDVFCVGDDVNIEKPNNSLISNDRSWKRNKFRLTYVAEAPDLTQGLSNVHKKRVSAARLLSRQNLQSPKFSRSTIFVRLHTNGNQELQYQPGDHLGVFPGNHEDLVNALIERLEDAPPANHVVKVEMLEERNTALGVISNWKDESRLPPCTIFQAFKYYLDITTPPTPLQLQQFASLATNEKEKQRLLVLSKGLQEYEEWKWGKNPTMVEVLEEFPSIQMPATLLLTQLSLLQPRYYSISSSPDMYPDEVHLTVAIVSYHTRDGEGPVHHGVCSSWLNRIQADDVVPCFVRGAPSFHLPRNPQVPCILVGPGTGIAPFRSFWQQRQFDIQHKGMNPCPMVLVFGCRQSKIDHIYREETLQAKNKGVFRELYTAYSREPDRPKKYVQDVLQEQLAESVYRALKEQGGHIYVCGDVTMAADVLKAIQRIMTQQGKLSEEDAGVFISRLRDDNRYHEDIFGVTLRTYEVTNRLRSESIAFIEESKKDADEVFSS
Sequence of Sigma non-opioid intracellular receptor 1 (Q99720 whole entry): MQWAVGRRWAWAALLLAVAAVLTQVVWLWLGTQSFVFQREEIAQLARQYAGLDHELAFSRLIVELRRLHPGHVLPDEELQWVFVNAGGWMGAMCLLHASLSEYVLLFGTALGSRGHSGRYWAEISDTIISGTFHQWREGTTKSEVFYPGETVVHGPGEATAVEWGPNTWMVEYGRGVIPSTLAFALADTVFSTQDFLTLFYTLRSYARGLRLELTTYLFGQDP
Sequence of Melanocortin receptor 3 (P41968 whole entry): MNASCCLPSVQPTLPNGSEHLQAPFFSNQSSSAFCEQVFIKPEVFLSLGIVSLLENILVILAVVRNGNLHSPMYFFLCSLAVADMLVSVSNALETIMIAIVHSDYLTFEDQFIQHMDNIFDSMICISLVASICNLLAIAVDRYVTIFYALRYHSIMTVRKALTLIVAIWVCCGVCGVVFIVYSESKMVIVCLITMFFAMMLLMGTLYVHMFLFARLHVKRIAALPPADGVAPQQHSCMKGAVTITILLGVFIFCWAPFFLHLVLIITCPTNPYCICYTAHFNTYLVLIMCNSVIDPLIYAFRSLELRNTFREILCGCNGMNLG
Sequence of Mitogen-activated protein kinase 1 (P28482 whole entry): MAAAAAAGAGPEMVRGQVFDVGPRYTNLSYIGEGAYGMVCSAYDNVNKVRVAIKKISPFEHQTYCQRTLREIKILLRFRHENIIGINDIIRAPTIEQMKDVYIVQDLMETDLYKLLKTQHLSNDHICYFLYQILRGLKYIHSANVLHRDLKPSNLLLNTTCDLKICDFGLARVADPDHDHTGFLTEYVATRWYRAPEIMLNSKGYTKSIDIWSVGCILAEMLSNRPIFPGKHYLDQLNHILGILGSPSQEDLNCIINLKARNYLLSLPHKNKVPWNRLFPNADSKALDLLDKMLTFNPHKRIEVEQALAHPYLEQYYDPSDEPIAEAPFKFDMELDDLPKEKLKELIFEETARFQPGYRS

The IC50 is the concentration that gives 50% inhibition. A word on the Ki: it is the equilibrium dissociation constant of an inhibitor or competing ligand from its target. On to `CC1=C(CC(=O)O)c2cc(F)ccc2/C1=C\c1ccc([S+](C)[O-])cc1` (stereo not drawn), for which the IC50 result in assay [1], in assay [2], in assay [3] (cho-k1), in assay [4] (jurkat), in assay [5] and in assay [6] was “Not Active” throughout. The IC50 result (against Melanocortin receptor 3; on Nitric oxide synthase 1; in assay [7]; in [8]; in assay [9]) was “Not Active” each time. For the same compound, the Ki entry in assay [1], in assay [2], in assay [6] and in [8] was “Not Active” throughout.

For the compound `Clc1ccc2c(c1)C(N1CCNCC1)=Nc1ccccc1O2` [AMOXAPINE], the IC50 entry (in assay [4] (jurkat); in assay [5]; at Melanocortin receptor 3; at Nitric oxide synthase 1; in assay [7]; in assay [9]) was “Not Active” throughout.

With `COc1cc2c(c(OC)c1OC)-c1ccc(OC)c(=O)cc1[C@@H](NC(C)=O)CC2` [COLCHICINE], the IC50 entry (in assay [3] (cho-k1); in assay [4] (jurkat); in [5]; against Melanocortin receptor 3; against Nitric oxide synthase 1; in [7]) was “Not Active” in each case. In addition, the IC50 result in assay [9] is “Not Active”.

For `CN1CCC(=C2c3ccccc3C=Cc3ccccc32)CC1` [CYPROHEPTADINE], the half-maximal inhibitory concentration (IC50) in assay [3] (read-out: IC50) is 2.44 nM; in [4] (jurkat) it was “Not Active”; in [5], “Not Active”; against Melanocortin receptor 3, “Not Active”; at Nitric oxide synthase 1, “Not Active”; in assay [7], “Not Active”. Moreover, the IC50 entry in assay [9] is reported as “Not Active”. Also, in [3] (read-out: Ki), the Ki stood at 1.28 nM.

For `CC/C(=C(/CC)c1ccc(O)cc1)c1ccc(O)cc1` [DIETHYLSTILBESTROL], the IC50 result (in [4] (jurkat); in assay [5]; on Melanocortin receptor 3; against Nitric oxide synthase 1; in assay [7]; in assay [9]) was “Not Active” in each case.

As for `C=CCN1CC[C@]23c4c5ccc(O)c4O[C@H]2C(=O)CC[C@@]3(O)[C@H]1C5` [NALOXONE], the IC50 result (in assay [3] (cho-k1); in assay [4] (jurkat); in assay [5]; against Melanocortin receptor 3; on Nitric oxide synthase 1; in [7]) was “Not Active” each time. In assay [9], the IC50 result is “Not Active”.

Turning to `CC(C)NCC(O)COc1cccc2ccccc12` (stereo not drawn) [PROPRANOLOL], the IC50 in assay [4] (read-out: IC50) was 2870 nM; in [5] it was “Not Active”; on Melanocortin receptor 3 it was “Not Active”; against Nitric oxide synthase 1, “Not Active”; in [7], “Not Active”; in assay [9], “Not Active”. In [4] (read-out: Ki), the Ki came out at 1210 nM.

On to `O=C(c1ccc(OCCN2CCCCC2)cc1)c1c(-c2ccc(O)cc2)sc2cc(O)ccc12` [RALOXIFENE], for which the IC50 result (in [1]; in [2]; in assay [5]; in assay [6]; on Melanocortin receptor 3; on Nitric oxide synthase 1) was “Not Active” in each case. Moreover, the IC50 entry in assay [7], in assay [8] and in assay [9] was “Not Active” throughout. The Ki entry in assay [1], in [2], in assay [6] and in assay [8] was “Not Active” in each case.

With `CC(C)(C)c1ccc(C(O)CCCN2CCC(C(O)(c3ccccc3)c3ccccc3)CC2)cc1` (stereo not drawn) [TERFENADINE], the IC50 result (in [1]; in assay [2]; in assay [4] (jurkat); in assay [5]; in [6]; on Melanocortin receptor 3) was “Not Active” each time. The IC50 result (at Nitric oxide synthase 1; in assay [7]; in assay [8]; in [9]) was “Not Active” throughout. For the same compound, the Ki result in assay [1], in [2], in assay [6] and in assay [8] was “Not Active” in each case.

The values are drawn from ChEMBL document CHEMBL1909046, “DrugMatrix in vitro pharmacology data”.
